Drawing on US20100261736A1, “SUBSTITUTED BICYCLIC HETEROARYL COMPOUNDS FOR THE TREATMENT OF CARDIOVASCULAR DISEASE” (priority 2007, published 2010), this text covers IC50 and half-life for eight compounds.

Series [1] concerns the target T1, Prostacyclin receptors (IP receptors) of human thrombocyte membranes (Homo sapiens, UniProt P43119).
T1 construct: Thrombocyte membranes are obtained by centrifuging 50 ml of human blood
Nature of the series: Binding to prostacyclin receptors (IP receptors) of human thrombocyte membranes, 3H-Iloprost displacement. The note with it: 3 nM 3H-Iloprost, 60 min, room temperature. On the procedure: B-1. Studies of Binding to Prostacyclin Receptors (IP Receptors) of Human Thrombocyte Membranes
Thrombocyte membranes are obtained by centrifuging 50 ml of human blood (Buffy coats with CDP Stabilizer, from Maco Pharma, Langen) for 20 min at 160×g. Remove the supernatant (platelet-rich plasma, PRP) and then centrifuge again at 2000×g for 10 min at room temperature. Resuspend the sediment in 50 mM tris(hydroxymethyl)aminomethane, which has been adjusted to a pH of 7.4 with 1 N hydrochloric acid, and store at −20° C. overnight. On the next day, centrifuge the suspension at 80 000×g and 4° C. for 30 min. Discard the supernatant. Resuspend the sediment in 50 mM tris(hydroxymethyl)aminomethane/hydrochloric acid, 0.25 mM ethylene diamine tetraacetic acid (EDTA), pH 7.4, and then centrifuge once again at 80 000×g and 4° C. for 30 min. Take up the membrane sediment in binding buffer (50 mM tris(hydroxymethyl)-aminomethane/hydrochloric acid, 5 mM magnesium chloride, pH 7.4) and store at −70° C. until the binding test.
For the binding test, incubate 3 nM ^3H-Iloprost (592 GBq/mmol, from AmershamBioscience) for 60 min with 300-1000 μg/ml of human thrombocyte membranes per charge (max. 0.2 ml) in the presence of the test substances at room temperature. After stopping, add cold binding buffer to the membranes and wash with 0.1% bovine serum albumin. After adding Ultima Gold Scintillator, quantify the radioactivity bound to the membranes using a scintillation counter. The nonspecific binding is defined as radioactivity in the presence of 1 μM Iloprost (from Cayman Chemical, Ann Arbor) and is as a rule <25% of the bound total radioactivity. The binding data (IC50 values) are determined using the program GraphPad Prism Version 3.02.

For series [2] the following is noted: non-enzymatic transformation to inactive metabolite 6-keto-prostaglandin-F1alpha; cited from earlier work.

T1 sequence (P43119 whole entry): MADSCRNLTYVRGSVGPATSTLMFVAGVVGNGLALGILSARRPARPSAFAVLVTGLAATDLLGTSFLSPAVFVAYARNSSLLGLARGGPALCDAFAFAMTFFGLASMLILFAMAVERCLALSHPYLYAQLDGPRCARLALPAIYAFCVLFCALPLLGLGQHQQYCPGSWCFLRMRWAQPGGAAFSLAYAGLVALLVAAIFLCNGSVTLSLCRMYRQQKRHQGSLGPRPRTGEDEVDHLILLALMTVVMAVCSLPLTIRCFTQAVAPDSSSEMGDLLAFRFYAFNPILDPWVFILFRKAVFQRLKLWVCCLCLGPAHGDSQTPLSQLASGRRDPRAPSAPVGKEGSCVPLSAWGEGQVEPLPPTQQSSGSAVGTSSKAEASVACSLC

A word on the IC50: it is the midpoint of a concentration-inhibition curve. Low readings indicate greater potency, high ones weaker potency. Take `COc1ccc(-c2c(-c3ccccc3)[nH]c3ncnc(O[C@H](C)CCCCC(=O)O)c23)cc1` [Example 5, (6R)-6-{[5-(4-Methoxyphenyl)-6-phenyl-7H-pyrrolo[2,3-d]pyrimidin-4-yl]oxy}heptanoic acid]: in series [1], the 50% inhibitory concentration (IC50) is 39 nM.

For `CCc1ccc(-c2c(-c3ccccc3)sc3ncnc(O[C@H](C)CCCCC(=O)O)c23)cc1` [Example 9, (6R)-6-{[5-(4-ethylphenyl)-6-phenylthieno[2,3-d]pyrimidin-4-yl]oxy}heptanoic acid], in series [1], the half-inhibitory concentration (IC50) was 208 nM.

In series [1], `COc1ccc(-c2c(-c3ccccc3)oc3cccc(OCCCCCC(=O)O)c23)cc1` [Example 12, 6-{[3-(4-Methoxyphenyl)-2-phenyl-1-benzofuran-4-yl]oxy}hexanoic acid] gave an IC50 of 984 nM.

In the case of `COc1ccc(-c2c(-c3ccccc3)oc3ccnc(NCC(C)(C)COCC(=O)O)c23)cc1` [Example 19, (3-{[3-(4-Methoxyphenyl)-2-phenylfuro[3,2-c]pyridin-4-yl]amino}-2,2-dimethylpropoxy)acetic acid], the IC50 in series [1] stood at 98 nM.

In series [1], `CCc1ccc(-c2c(-c3ccccc3)oc3nccc(NCC(C)(C)COCCC(=O)O)c23)cc1` [Example 21, 3-(3-{[3-(4-Ethylphenyl)-2-phenylfuro[2,3-b]pyridin-4-yl]amino}-2,2-dimethylpropoxy)-propanoic acid] displayed an IC50 of 35 nM. This IC50 is about 2.8-fold lower than that of the compound before.

`CCc1ccc(-c2c(-c3ccccc3)oc3nccc(O[C@H](C)CCCCC(=O)O)c23)cc1` [Example 28, (6R)-6-{[3-(4-ethylphenyl)-2-phenylfuro[2,3-b]pyridin-4-yl]oxy}heptanoic acid]: the IC50 in series [1] was determined as 39 nM. This IC50 and that of the compound before are within 1.5-fold of each other.

Take `CCc1ccc(-c2c(-c3ccccc3)oc3nccc(OCCOCCC(=O)O)c23)cc1` [Example 29]: the IC50 in series [1] amounted to 1700 nM.

Turning to `CCCCC[C@H](O)/C=C/[C@@H]1[C@H]2C/C(=C/CCCC(=O)O)O[C@H]2C[C@H]1O` [PGI2], the half-life result in series [2] was “approx. 3 minutes”.
